From patent US5169845A, “Piperazine derivatives” (John Wyeth & Brother Limited, priority 1990, dated 1992)

Legend:
5-HT1A receptor = target: T1, 5-HT1A receptor (Rattus norvegicus, UniProt P19327); assay: 5-HT1A receptor binding activity in rat hippocampal membrane homogenate
T1 construct: rat hippocampal membrane homogenate; from tissue; host or cells: rat hippocampal membrane homogenate
T1 sequence (P19327 1-422): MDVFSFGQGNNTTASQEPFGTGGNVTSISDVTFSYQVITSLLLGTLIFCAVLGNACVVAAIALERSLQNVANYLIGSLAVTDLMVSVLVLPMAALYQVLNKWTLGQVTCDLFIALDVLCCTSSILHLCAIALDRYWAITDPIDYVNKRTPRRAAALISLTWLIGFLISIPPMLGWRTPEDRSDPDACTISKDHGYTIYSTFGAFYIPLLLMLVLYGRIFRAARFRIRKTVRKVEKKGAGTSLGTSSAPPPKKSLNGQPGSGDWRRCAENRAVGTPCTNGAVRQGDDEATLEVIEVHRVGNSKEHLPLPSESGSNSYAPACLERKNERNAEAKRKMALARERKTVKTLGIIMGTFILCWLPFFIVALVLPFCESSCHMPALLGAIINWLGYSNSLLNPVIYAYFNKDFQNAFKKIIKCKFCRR
Procedure: The compounds of the invention were tested for 5-HT1A receptor binding activity in rat hippocampal membrane homogenate by the method of B S Alexander and M D Wood, J Pharm Pharmacol, 1988, 40, 888-891.

α1 = assay: affinity for the α1 site (procedure of A L Marrow et al); assay type: binding

IC50 (5-HT1A receptor) [nM] | IC50 (α1) [nM] | SMILES
38 | 2900 | COc1ccccc1N1CCN(CC(C(=O)NC(C)(C)C)c2ccccn2)CC1 (stereo not shown) [Example 1, N-tert-Butyl-3-[4-(2-methoxyphenyl)piperazin-1-yl]-2-(2-pyridyl)propanamide]
0.8 | 147 | COc1ccccc1N1CCN(CCC(C(=O)N2CCCCCC2)c2cccs2)CC1 (stereo not shown) [Example 2, 2,3,4,5,6,7-Hexahydro-1-[2-(2-thiophenyl)-4-(1-(4-(2-methoxyphenyl)piperazinyl))]butyryl-1H-azepine]
